Reference: the CheMixHub drug solubility set

Assay: xn = mol fraction of the nth substance listed, in the solute-free solvent

CN1CCC(N(Cc2cccs2)c2ccccc2)CC1 + CCCO + O
solubility (g/100 g solution)
Conditions	278.15 K	283.15 K	288.15 K	293.15 K	298.15 K	303.15 K	308.15 K	313.15 K	318.15 K	323.15 K
x2 = 0.03225	0.166	0.176	0.187	0.203	0.221	0.243	0.267	0.289	0.318	0.348
x2 = 0.06974	0.411	0.434	0.458	0.492	0.533	0.581	0.632	0.682	0.743	0.808
x2 = 0.1139	0.734	0.774	0.815	0.873	0.943	1.02	1.11	1.2	1.3	1.41
x2 = 0.1666	1.05	1.11	1.18	1.26	1.36	1.48	1.61	1.73	1.88	2.04
x2 = 0.2307	1.32	1.4	1.49	1.6	1.73	1.89	2.06	2.22	2.41	2.62
x2 = 0.3103	1.55	1.66	1.77	1.91	2.08	2.26	2.48	2.69	2.93	3.18
x2 = 0.4117	1.77	1.9	2.04	2.21	2.4	2.63	2.87	3.13	3.45	3.75
x2 = 0.5454	1.97	2.13	2.3	2.5	2.74	3	3.31	3.62	3.96	4.32
x2 = 0.7297	2.09	2.27	2.47	2.7	2.97	3.26	3.62	3.98	4.36	4.77

CN1CCC(N(Cc2cccs2)c2ccccc2)CC1 + CCO + O
solubility (g/100 g solution)
Conditions	278.15 K	283.15 K	288.15 K	293.15 K	298.15 K	303.15 K	308.15 K	313.15 K	318.15 K	323.15 K
x2 = 0.04165	0.102	0.109	0.117	0.128	0.141	0.156	0.171	0.187	0.206	0.228
x2 = 0.08908	0.202	0.215	0.23	0.25	0.274	0.301	0.33	0.358	0.393	0.431
x2 = 0.1436	0.339	0.36	0.385	0.418	0.457	0.501	0.546	0.592	0.646	0.707
x2 = 0.2068	0.502	0.533	0.571	0.62	0.679	0.743	0.807	0.874	0.953	1.04
x2 = 0.2812	0.667	0.713	0.764	0.826	0.904	0.984	1.07	1.16	1.26	1.39
x2 = 0.3698	0.851	0.906	0.981	1.07	1.18	1.29	1.4	1.51	1.65	1.8
x2 = 0.4772	1.02	1.08	1.18	1.29	1.42	1.56	1.69	1.84	2.01	2.19
x2 = 0.6101	1.16	1.24	1.36	1.5	1.65	1.81	1.97	2.15	2.35	2.56
x2 = 0.7788	1.22	1.32	1.47	1.64	1.81	2	2.19	2.4	2.63	2.87

Cc1ccc2cc(Br)ccc2n1 + CCO + O
solubility (g/100 g solution)
Conditions	278.15 K	283.15 K	288.15 K	293.15 K	298.15 K	303.15 K	308.15 K	313.15 K	318.15 K	323.15 K
x2 = 0.04165	0.0289	0.0336	0.0393	0.0455	0.0528	0.0607	0.0707	0.0816	0.0939	0.108
x2 = 0.08908	0.0673	0.0777	0.0902	0.103	0.119	0.137	0.158	0.181	0.207	0.237
x2 = 0.1436	0.119	0.137	0.159	0.181	0.209	0.239	0.276	0.315	0.359	0.411
x2 = 0.2068	0.176	0.203	0.234	0.267	0.308	0.354	0.408	0.466	0.53	0.607
x2 = 0.2812	0.218	0.26	0.304	0.347	0.4	0.46	0.535	0.61	0.695	0.798
x2 = 0.3698	0.266	0.313	0.373	0.43	0.501	0.579	0.667	0.762	0.873	1.01
x2 = 0.4772	0.308	0.37	0.442	0.521	0.603	0.705	0.819	0.935	1.07	1.24
x2 = 0.6101	0.356	0.425	0.505	0.593	0.693	0.812	0.948	1.09	1.27	1.47
x2 = 0.7788	0.399	0.477	0.569	0.67	0.785	0.925	1.08	1.25	1.44	1.66

Nc1cccc2ccncc12 + CCO + O
solubility (g/100 g solution)
Conditions	278.15 K	283.15 K	288.15 K	293.15 K	298.15 K	303.15 K	308.15 K	313.15 K	318.15 K	323.15 K
x2 = 0.04165	0.0455	0.0527	0.0604	0.0712	0.0812	0.0941	0.11	0.128	0.147	0.171
x2 = 0.08908	0.0727	0.084	0.0965	0.113	0.129	0.149	0.174	0.202	0.233	0.271
x2 = 0.1436	0.111	0.129	0.148	0.172	0.197	0.228	0.266	0.308	0.355	0.413
x2 = 0.2068	0.162	0.187	0.215	0.25	0.287	0.332	0.387	0.448	0.517	0.602
x2 = 0.2812	0.211	0.244	0.286	0.338	0.39	0.45	0.52	0.604	0.697	0.809
x2 = 0.3698	0.271	0.315	0.371	0.441	0.51	0.589	0.685	0.794	0.922	1.08
x2 = 0.4772	0.308	0.371	0.437	0.522	0.618	0.722	0.846	0.987	1.14	1.33
x2 = 0.6101	0.364	0.432	0.522	0.614	0.718	0.835	0.975	1.13	1.33	1.56
x2 = 0.7788	0.383	0.459	0.559	0.658	0.77	0.902	1.06	1.25	1.47	1.73

CC(=O)Oc1cccc2c1C(=O)c1c(OC(C)=O)cc(C(=O)O)cc1C2=O + CCOC(C)=O + CC(C)O
solubility (g/100 g solution)
Conditions	273.15 K	278.15 K	283.15 K	288.15 K	293.15 K	298.15 K	303.15 K	308.15 K	313.15 K
x2 = 0.07045	0.0064	0.00841	0.0107	0.014	0.0178	0.0215	0.0261	0.0309	0.0362
x2 = 0.1457	0.00881	0.0112	0.0142	0.0177	0.0216	0.0261	0.031	0.0367	0.0431
x2 = 0.2262	0.0102	0.0132	0.0164	0.0199	0.0246	0.0305	0.0368	0.0448	0.0539
x2 = 0.3126	0.0121	0.0158	0.0197	0.0245	0.0299	0.0359	0.0439	0.0522	0.062
x2 = 0.4055	0.0132	0.0175	0.0224	0.0279	0.0338	0.0406	0.0489	0.0583	0.069
x2 = 0.5057	0.0164	0.0205	0.0253	0.0305	0.0368	0.0435	0.0512	0.0598	0.0693
x2 = 0.6141	0.0209	0.026	0.0317	0.0375	0.0445	0.0521	0.0612	0.0702	0.0806
x2 = 0.7318	0.0254	0.0303	0.0368	0.0441	0.0516	0.06	0.0692	0.0796	0.0906
x2 = 0.8599	0.0219	0.0263	0.0318	0.0379	0.0443	0.0515	0.0599	0.0686	0.0779

CC(=O)Oc1cccc2c1C(=O)c1c(OC(C)=O)cc(C(=O)O)cc1C2=O + CCOC(C)=O + CCO
solubility (g/100 g solution)
Conditions	273.15 K	278.15 K	283.15 K	288.15 K	293.15 K	298.15 K	303.15 K	308.15 K	313.15 K
x2 = 0.05491	0.00668	0.0091	0.0121	0.016	0.0207	0.0262	0.0328	0.04	0.0477
x2 = 0.1156	0.00776	0.0107	0.0144	0.0188	0.0241	0.0303	0.0382	0.0464	0.0564
x2 = 0.1831	0.015	0.0183	0.022	0.0265	0.0324	0.0391	0.0465	0.0555	0.0662
x2 = 0.2585	0.0202	0.0259	0.0317	0.0381	0.045	0.0534	0.0632	0.0734	0.0846
x2 = 0.3434	0.0268	0.0331	0.0402	0.0487	0.0574	0.067	0.078	0.0898	0.103
x2 = 0.4396	0.033	0.0398	0.0471	0.0563	0.0659	0.0773	0.0893	0.103	0.118
x2 = 0.5496	0.0337	0.0411	0.0496	0.0593	0.0698	0.0813	0.0934	0.109	0.125
x2 = 0.6765	0.0349	0.0419	0.0506	0.0609	0.0723	0.0849	0.0975	0.112	0.127
x2 = 0.8247	0.0222	0.0276	0.0334	0.0401	0.048	0.0562	0.0655	0.0763	0.087
